The text below walks through data of patent publication US20020094958A1, “Materials for lysosome modulation and methods of use thereof” (priority 2000, published 2002).

In one test the test system is lysosomal enzyme levels. Kind of test: Upmodulation of lysosomal enzyme levels in hippocampal slice cultures (Table 1). The test is classed as cell-based, rat. To be noted: compounds individually applied to hippocampal slice cultures. From the text:
Another aspect of the invention is the provision of compounds to increase cellular content (upmodulation) of lysosomal enzymes. As used herein “upmodulation” is an increase in the cellular content of lysosomal enzymes or in the content of lysosomes. Some inventive lysosomal modulating compounds are comprised by the previously described formulas (1) M-aan—CH═N═N, (2) M-aan—CH2—O—CO—[2-R-4-R-6-R-Phenyl], (3) M-aan—NH—CH2—CH N—NH—CO—NH2 and (4) M—N═N—CO—CH2-aan—O—R. Examples of compounds include, formula (1) benzyloxycarbonyl-Phe-Ala-diazomethylketone and benzyloxycarbonyl-Phe-Phe-diazomethylketone; formula (2) is benzyloxycarbonyl-Phe-Lys-2,4,6-trimethylbenzoyloxymethylketone; formula (3) is H-Gly-Phe-Gly-aldehyde semicarbazone; formula (4) is diazoacetyl-DL-2-aminohexanoic acid-methyl ester. When these compounds were individually applied to hippocampal slice cultures, each facilitated the upmodulation of lysosomal enzyme levels (Table 1). Each of the compounds is available from BACHEM Biosciences Inc. of King of Prussia, Pa. Presently, PADK is the preferred compound for modulation of lysosomal activity.
Lysosomal modulating compounds were identified that unexpectedly stimulate lysosomal activity and/or cellular feedback processes for the upregulation of lysosomal hydrolase levels. […] Thus the inventive lysosomal modulation promotes efficient tau turnover/processing and thereby reduces the ability of abnormally phosphorylated tau to drive non-pathogenic species off of microtubules and into the aggregated state. The non-pathogenic tau molecules would then be more readily available to stabilize microtubules and their transport mechanisms that are important for neuronal functions.

For test [1], the system named is hippocampal slice cultures. The test can be described thus: Horse-radish peroxidase dendritic transport scoring in hippocampal slice cultures. The class given is cell-based, rat. On the procedure: Lysosomal dysfunction was produced in hippocampal slice cultures with chloroquine as in Example 2. Separate groups of slices were assessed for transport capability by applying horse-radish peroxidase to neurons and scoring its transport from cell bodies along dendrites by two independent observers. […] By monitoring intracellular tau deposition, microtubule stabilization marker (acetylated tubulin), and transport capability, it appears that changes in all of these related parameters contribute to the link between lysosomal modulation and synapse maintenance (FIG. 7).

The subject of test [2] is hippocampal slice cultures. Kind of test: Immunoblot of tau species and lysosomal enzymes after chloroquine-mediated lysosomal dysfunction in hippocampal slice cultures. The class given is cell-based, rat. From the text: Lysosomal dysfunction was produced in hippocampal slice cultures with chloroquine as in Example 2.
Test [3] relates to hippocampal slice cultures. The test can be described thus: Synaptic marker decline and recovery after chloroquine-induced lysosomal dysfunction in hippocampal slice cultures. The test is classed as cell-based, rat. To be noted: for recovery of the postsynaptic marker GluR1 concentration / recovery of the presynaptic marker synaptophysin concentration: 2-day recovery after 6-day 60 μM chloroquine, vs chloroquine baseline. On the procedure: The method comprises treatment of a neural tissue culture with a lysosomal disruptor (e.g., chloroquine) to initiate lysosome dysfunction in the culture. The culture is treated with a lysosomal disruptor in order to reproduce features characteristic of neurodegeneration, especially those found in Alzheimer's disease (FIG. 7). Preferably, chloroquine is utilized for the lysosomal disruptor due to its broad targeting of pH-dependent enzymes by disrupting the proton gradient of lysosomes. Chloroquine is added to the culture for an extended period of time (the addition time period) to cause gradual cellular changes.
After a predetermined time, the lysosomal disrupter is removed from the culture and synaptic marker concentrations are determined. Subsequently, small amounts of compounds are administered to the neural tissue to modulate lysosomal enzymes. After such treatment, concentrations of synaptic markers in the neural tissue are determined, and the treated and untreated synaptic marker concentrations are compared to determine synaptic recovery (see FIG. 2). Thus by monitoring decline (during disruptor addition) and subsequent increase (during compound addition) of synaptic markers, synaptic degeneration and recovery can be assessed, and the efficacy of the added compounds can be measured.
In order to induce lysosomal dysfunction, 60 μM chloroquine in media was added separately to groups of hippocampal slice cultures. The chloroquine-containing media was changed every two days. Over a 6-day period, separate groups of slices were harvested and synaptic pathology assessed by determining the content of the postsynaptic marker GluR1. […] In a first set of slices the chloroquine was removed from the feeding media after the 6-day addition period and synaptic recovery was assessed after one and two days by measuring GluR1 concentration. […] Although the rate of decline slowed between the first and second day, there was no evidence of synaptic recovery.
In a second set of slices, synaptic recovery was assessed after removal of chloroquine-containing media and a single addition of 10 μM of the lysosomal modulator benzyloxycarbonyl-Phe-Ala-diazomethyiketone (PADK) in media was applied to cultures. As shown by the closed triangles, addition of PADK functioned to increase the GluR1 marker concentration, indicating recovery from synaptic degeneration.
Lysosomal dysfunction was induced by adding 60 μM chloroquine in media to separate groups of hippocampal slice cultures. The chloroquine-containing media was changed every two days for a total of six days. After the 6-day addition period, the chloroquine was removed from the feeding media of individual sets of cultures and presynaptic marker (synaptophysin) and postsynaptic marker (GluR1) concentrations assessed to provide a baseline indicated by the horizontal dotted lines in FIGS. 3A and 3B. 10 μM PADK, 10 μM Ampakine (trademark of Cortex Pharmaceuticals; Irvine, Calif.), and 10 μM memantine (derivatives of which are a trademark of Merz Pharmaceuticals; Germany) were added separately to separate chloroquine-treated cultures to assess their effects on synaptic recovery. After a 2-day recovery period, the separate groups of cultures were harvested and concentrations of presynaptic (synaptophysin) and postsynaptic (GluR1) markers were measured and compared to the reduced levels resulting from the 6-day chloroquine treatment. An increase from the baseline indicates recovery while no difference or further reduction of marker concentrations from the baseline indicates no recovery of synaptic maintenance.

The test system of a further test is cathepsin D. Kind of test: Cathepsin D in brain tissue of rats given PADK in drinking water. The test is classed as in vivo, rat. As to conditions: adult male rats, approximately 3 to 4 mg/kg/day, seven days, vs untreated group. As for the experimental part:
A further aspect of the invention is a method of modulating lysosomal function in a subject comprising administering to the subject a therapeutically effective amount of at least one inventive lysosome modulating compound or a physiologically acceptable salt thereof. As discussed in more detail later, the lysosome modulating compound benzyloxycarbonyl-Phe-Ala-diazomethylketone (PADK) was added to the drinking water of a first group of 5 adult male rats in an amount corresponding to 3 to 4 mg PADK/kg rat weight/day. […] After seven days, hippocampal and neocortical tissue was isolated from the first and the second groups. The concentration of the lysosomal enzyme cathepsin D in tissue samples was assessed by immunoblot for each of the groups.
The lysosomal modulator benzyloxycarbonyl-Phe-Ala-diazomethylketone (PADK) was added to the drinking water of a first group of 5 adult male rats in an amount corresponding to approximately 3 to 4 mg PADK/ kg rat weight/day. […] After seven days, hippocampal and neocortical tissue was isolated from the first and the second groups. The concentration of cathepsin D in tissue samples was assessed by immunoblot for each of the groups.

Test [4] relates to hippocampal slice cultures. The test can be described thus: Continuous PADK application to hippocampal slice cultures over a 20-day period. The test is classed as cell-based, rat. From the text: One aspect of the invention is the use of compounds to modulate lysosomal activity. The modulation of lysosomal activity may be, but is not necessarily, accompanied by an increase in cellular content of lysosomes or lysosomal enzymes. Some inventive lysosomal modulating compounds comprise the previously described formulas (1) M-aan—CH═N═N, (2) M-aan—CH2—O—CO—[2-R-4-R-6-R-Phenyl], (3) M-aan—NH—CH2—CH═N—NH—CO—NH2, (4) M-N ═N—CO—CH2—aan—O—R, and combinations thereof. An example of formula (1) is benzyloxycarbonyl-Phe-Ala-diazomethylketone (PADK). As discussed in more detail later, PADK was applied to hippocampal slice cultures at a continuous concentration of 10 μM over a 20-day period. Fresh media and PADK compound were applied every two days.
Benzyloxycarbonyl-Phe-Ala-diazomethylketone (PADK) was applied to hippocampal slice cultures at a continuous concentration of 10 μM over a 20-day period. Fresh media and PADK compound were applied every two days. […] Thus the inventive lysosomal modulation promotes efficient tau turnover/processing and thereby reduces the ability of abnormally phosphorylated tau to drive non-pathogenic species off of microtubules and into the aggregated state. The non-pathogenic tau molecules would then be more readily available to stabilize microtubules and their transport mechanisms that are important for neuronal functions. Such an inverse correlation between the two forms of tau was also evident in the hippocampus of aged mice, where the change vs. age relationships determined for hyperphosphorylated and non-phosphorylated tau were of equal but opposite slopes. Thus, lysosomal modulators may intervene in the progression of certain types of neuronal atrophy, as well as in the cellular processes that contribute to synaptic loss and the severity of Alzheimer-type dementia.

[5] abbreviates: PADK for two days following 6-day chloroquine period.
[6] abbreviates: 2 days PADK following 6-day chloroquine treatment.
Where [7] appears, read: 10 μM continuous, 20-day period.
Setting [8] is: 6 days chloroquine then 2 days media alone, vs untreated control.

Where a SMILES comes first, the peptide text is derived from it. The star is where a group is joined. Cbz = O=C(OCc1ccccc1)*; CHN2 = [N-]=[N+]=C*

On to `C[C@H](NC(=O)[C@H](Cc1ccccc1)NC(=O)OCc1ccccc1)C(=O)C=[N+]=[N-]` [(1), benzyloxycarbonyl-Phe-Ala-diazomethylketone], for which the upmodulated cathepsin types entry in the test with lysosomal enzyme levels is on record as “B, D, S”. In test [1] (setting [5]), the “restoration of transport capability” value is listed as “significant restoration” and the transport failure entry was “did not exhibit transport failure”. Further, in test [2] (setting [6]), the “55-69 kDa tau species” value was “reduction” and the “cathepsin D” value is listed as “robust upmodulation”. Moreover, the “levels of lysosomal enzymes cathepsin B (CB), cathepsin D (CD), cathepsin S (CS)” value in test [2] (FIG. 5 immunoblots) was “enhanced levels”. Moreover, the “control levels of tau isoforms” value in test [2] (PADK addition alone (no chloroquine)) is given as “without altering”. Besides, the “recovery from synaptic degeneration (GluR1)” value in test [3] (Example 2, single 10 μM addition after 6-day chloroquine, one day) is given as “significant recovery”. For the same compound, the “recovery of GluR1 level” value in test [3] (Example 2, single 10 μM addition after 6-day chloroquine, two days) was determined as 71%. For the same compound, in test [3] (Example 3, 10 μM), the “recovery of the postsynaptic marker GluR1 concentration” value came out at 70% and the “recovery of the presynaptic marker synaptophysin concentration” value is on record as approximately 35%. The “lysosomal enzyme (cathepsin D) concentration in hippocampal and neocortical tissue” value in the test with cathepsin D is listed as “significant increases”. For the same compound, in test [4] (setting [7]), the “cathepsin D levels” value is “stably enhanced”, the non-pathogenic tau isoforms entry is listed as “gradual increase”, the “pathogenic hyperphosphorylated tau species concentration” value is listed as “gradually reduced” and the “synaptic marker (GluR1)” value is “without any reduction”. In addition, the “concentration of the lysosomal enzyme cathepsin D” value in test [4] (10 μM, after 5 days of treatment) is “not significantly altered”.
As for `[N-]=[N+]=CC(=O)[C@H](Cc1ccccc1)NC(=O)[C@H](Cc1ccccc1)NC(=O)OCc1ccccc1` [(2), benzyloxycarbonyl-Phe-Phe-diazomethylketone] (Cbz-Phe-Phe-CHN2), the upmodulated cathepsin types result with lysosomal enzyme levels is reported as “B, D”.
Consider `NCC(=O)NC(Cc1ccccc1)C(=O)NCC=NNC(N)=O` (stereo not drawn) [(4), H-Gly-Phe-Gly-aldehyde semicarbazone], for which the upmodulated cathepsin types entry in the test with lysosomal enzyme levels is on record as “B, D”.
In the case of `CCN(CC)CCCC(C)Nc1ccnc2cc(Cl)ccc12` (centres unmarked) [chloroquine, reference compound], the transport capacity result in test [1] (6-day chloroquine followed by 2 days media alone, vs untreated slices) is reported as “adversely affected”. Moreover, in test [2] (setting [8]), the “cathepsin D (CD)” value was “small compensatory increase” and the “potentially pathogenic tau species of 55-69 kDa” value was “enhanced levels”. Moreover, in test [3] (60 μM, 6-day exposure period), the “GluR1 concentration during disruptor exposure” value is recorded as “decreased”.
For the compound `CC12CC3CC(C)(C1)CC(N)(C3)C2` [memantine, reference compound], in test [3] (Example 3, 10 μM), the “recovery of the postsynaptic marker GluR1 concentration” value was “No statistically significant recovery” and the “recovery of the presynaptic marker synaptophysin concentration” value is on record as “No statistically significant recovery”. Also, the “GluR1 level change vs baseline” value in test [3] (Example 3, 10 μM, 2-day recovery period, FIG. 3A) was “small decrease”.
